{
  "source": "patent US10705094B2",
  "about": "“TNF receptor signaling modulator assay” (UCB Biopharma SRL, priority 2015, dated 2020)",
  "key": {"[1]": {"tested_on": "TNFα-induced IL-8 production", "assay": "Inhibition of TNFα-induced IL-8 production in human monocytes", "format": "cell-based", "conditions": "Monocyte, 18 h", "method": "Venous blood from healthy donors was collected by venupuncture into sodium/heparin containing tubes (BD Biosciences). Peripheral blood mononuclear cells (PBMC) were isolated by density gradient centrifugation with Ficoll Paque (Amersham Biosciences). Briefly, 10 mL of blood was diluted 1:1 (v/v) with RPMI 1640 (Gibco) and carefully layered onto 20 mL Ficoll Paque. Cells were spun down for 30 minutes (min) at 470 g, the PBMC collected, washed once in RPMI 1640 and any remaining contaminating erythrocytes lysed in erythrocyte lysis buffer (1 g/L KHCO3, 8.3 g/L NH4Cl, 0.0372 g/L EDTA). Isolation of monocytes from the PBMC was performed using CD14+ Magnetic MicroBeads (Miltenyi Biotec) according to the manufacturer's instructions. Briefly, PBMC were resuspended in Dulbecco's modified Eagle's medium containing 5% BSA (Sigma) and 2 mM EDTA (Sigma) at 1×10^7 cells/ml. 25 μL of CD14 MicroBeads per 10^7 total cells were incubated for 15 min at room temperature. The magnetic separation was performed using a LS column (Miltenyi Biotec). […]\nHuman IL-8 was measured in the cell culture supernatants using enzyme-linked immunosorbent assay (ELISA) kits from R&D Systems Ltd. according to the manufacturer's instructions. […] Plates were read at a wavelength of 630 nm with correction at 470 nm."}, "CD40L": {"target": "T1, CD40L (Homo sapiens, UniProt P29965)", "T1 sequence (P29965 113-261 limits assumed)": "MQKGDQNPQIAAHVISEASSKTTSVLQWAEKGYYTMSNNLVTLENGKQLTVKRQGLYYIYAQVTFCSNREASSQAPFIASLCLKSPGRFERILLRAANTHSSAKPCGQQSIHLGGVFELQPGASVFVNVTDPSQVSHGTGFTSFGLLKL", "assay": "Mass spectrometric analysis of CD40L trimer stabilisation", "format": "binding", "conditions": "in the presence of DMSO", "excerpt": "Mass spectrometric analysis has shown that CD40L, which also forms homotrimers, is destabilised by DMSO, resulting in a reduced amount of the trimeric CD40L. The assay protocol used was the same as that described in Example 3 for TNFα, but using CD40L instead."}, "TNFα and TNF-R": {"target": "TNFα and TNF-R (Homo sapiens, UniProt P01375)", "sequence (P01375 77-233 limits assumed)": "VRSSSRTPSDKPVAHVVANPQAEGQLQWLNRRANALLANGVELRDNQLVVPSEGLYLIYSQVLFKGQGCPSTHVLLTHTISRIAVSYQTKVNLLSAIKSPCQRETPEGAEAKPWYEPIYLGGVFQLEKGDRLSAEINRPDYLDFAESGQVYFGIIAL", "sequence (P19438 30-211 partner limits assumed)": "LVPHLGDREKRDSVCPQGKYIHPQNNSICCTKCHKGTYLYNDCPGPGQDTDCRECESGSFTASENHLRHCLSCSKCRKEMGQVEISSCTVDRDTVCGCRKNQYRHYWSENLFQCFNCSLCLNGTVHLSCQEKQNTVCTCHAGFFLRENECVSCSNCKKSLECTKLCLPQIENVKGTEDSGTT", "assay": "LC-MS analysis of size exclusion fractions of TNFα, TNF-R and compound", "format": "binding", "conditions": "compound added before or after TNFα/TNF-R complex formation", "method": "Fractions from size exclusion chromatographic separation of mixtures of TNFα, TNF-R and the compound of formula (1) were analysed by liquid chromatography-mass spectrometry (LC-MS). Two samples were prepared for size exclusion chromatography."}},
  "data": [
    {"smiles": "Cc1ccc(C)c(Cn2c(C(O)c3ccncc3)nc3ccccc32)c1", "note": "(stereo not drawn) [Compound (1), [1-(2,5-Dimethylbenzyl)-1H-benzimidazol-2-yl](pyridin-4-yl)methanol]", "values": [
      {"measurement": "IC50", "setting": "[1]", "value": 454, "unit": "nM"},
      {"measurement": "stabilisation of trimeric CD40L", "setting": "CD40L", "value": "stabilise trimeric CD40L"},
      {"measurement": "binding to TNFα in the presence of TNF-R", "setting": "TNFα and TNF-R", "value": "binds to TNFα even in the presence of TNF-R"}
    ]}
  ]
}
